According to paper PMC10052977, “α,ω-Diacyl-Substituted Analogues of Natural and Unnatural Polyamines: Identification of Potent Bactericides That Selectively Target Bacterial Membranes” (International Journal of Molecular Sciences, 2023):
Where two headings read alike, the source gives them in different places.

Experiments:
[1] = tested on: Staphylococcus aureus ATCC 25923 or ATCC 29213; assay: MIC, broth dilution (CA-SFM); format: cell-based
[2] = tested on: Bacillus cereus ATCC 11778; assay: Real-time growth curves; format: cell-based; details: B. cereus ATCC 11778
Procedure: (§1) Solutions of compound 15d at concentrations of 2, 4 and 16 µg/mL were tested, each in triplicate, against S. aureus ATCC 25923, MRSA (CF-Marseille) and Bacillus cereus ATCC 11778. Typically, in a 96-well plate, 10 µL of 40, 80 and 320 µg/mL stock solutions of compound 15d were placed, as well as 190 µL of a 5 × 10^5 CFU/mL of the selected bacterial suspension in brain heart infusion (BHI) broth. Positive controls containing only 200 µL of a 5 × 10^5 CFU/mL of bacterial suspension in BHI and negative controls containing only 200 µL of BHI broth were added. The plate was incubated at 37 °C in a TECAN Spark Reader (Roche Diagnostic), and real-time bacterial growth was followed by OD590 nm measurement every 10 min during 19 h.

[3] = tested on: MRSA ATCC 43300; assay: MIC, CO-ADD broth microdilution; format: cell-based, Staphylococcus aureus; details: Staphylococcus aureus; MRSA ATCC 43300; mean (n = 2); read-out: MIC MRSA
[4] = tested on: human red blood cells; assay: Hemolytic assay; format: cell-based
Outline: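 Washed human erythrocytes at 0.5 × 10^8 cells/mL in 0.9% NaCl, shaken 10 min with compound, then held 1 h at 37 °C. Released hemoglobin in supernatant after centrifugation read at OD405; HC10 and HC50 from variable-slope sigmoidal fit against log concentration.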

[5] = tested on: S. aureus ATCC 25923; assay: Minimum bactericidal concentration test; format: cell-based; details: Staphylococcus aureus, ATCC25923, same value as MIC
Procedure: (§2) A pure culture of a specified microorganism was grown overnight, then diluted in growth-supporting broth (typically Mueller–Hinton II broth) to a concentration between 1 × 10^5 and 1 × 10^6 CFU/mL. A stock dilution of the antimicrobial test compound was created at approximately 100 times the expected previously determined MIC. Further 1:1 dilution was made in 96-well microtiter plates. All dilutions of the test compound were inoculated with equal volumes of the specified microorganism (typically 100 µL). […] An aliquot of the positive control is plated and used to establish a baseline concentration of the microorganism used. The microtiter plates were then incubated at 37 °C for 24 h. Turbidity indicates growth of the microorganism, and the MIC is the lowest concentration where no growth is visually observed. To determine the minimum bactericidal concentration (MBC), the dilution representing the MIC and at least two of the more concentrated test product dilutions are plated on a solidified agar plate to determine the bacterial viability. The MBC is the lowest concentration where no growth is encountered when compared to the MIC dilution.

[6] = tested on: MRSA (CF-Marseille); assay: Minimum bactericidal concentration test; format: cell-based; details: Staphylococcus aureus, same value as MIC
Procedure: as §2

[7] = tested on: Bacillus cereus ATCC 11778; assay: Minimum bactericidal concentration test; format: cell-based; details: ATCC11778, same value as MIC
Procedure: as §2

[8] = tested on: S. aureus ATCC 25923; assay: Real-time growth curves; format: cell-based, Staphylococcus aureus
Procedure: as §1

[9] = tested on: MRSA (CF-Marseille); assay: Real-time growth curves; format: cell-based, Staphylococcus aureus
Procedure: as §1

[10] = tested on: MRSA (CF-Marseille); assay: MIC, classical microdilution; format: cell-based; details: Staphylococcus aureus, 4.4 μM = 4 μg/mL
[11] = tested on: Escherichia coli ATCC 25922; assay: MIC, CO-ADD broth microdilution; format: cell-based; details: ATCC25922, mean (n = 2)
[12] = tested on: Candida albicans ATCC90028; assay: Antifungal MIC, CO-ADD; format: cell-based; details: mean (n = 2)
Outline: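 Yeast from 3-day YPD cultures was diluted in YNB broth to a final 2.5 × 10^3 CFU/mL and incubated at 35 °C for 36 h without shaking. C. albicans MICs were read by OD530 absorbance. QC used fluconazole and Z'-factor controls.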

[13] = tested on: Cryptococcus neoformans ATCC208821; assay: Antifungal MIC, CO-ADD; format: cell-based; details: ATCC208821, Cryptococcus neoformans ATCC208821, mean (n = 2)
Outline: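 Fungal strains were grown on YPD agar at 30 °C for 3 days. Five colonies were used to make a yeast suspension of 1 × 10^6 to 5 × 10^6 CFU/mL, which was diluted in yeast nitrogen base (YNB) broth to 2.5 × 10^3 CFU/mL. Covered plates were incubated without shaking at 35 °C for 36 h. Fluconazole was the positive control, and quality was judged from antimicrobial controls and the Z'-factor.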

[14] = tested on: Bacillus cereus ATCC 11778; assay: MIC, classical microdilution; format: cell-based; details: ATCC11778, 4.4 μM = 4 μg/mL
[15] = tested on: Acinetobacter baumannii ATCC19606; assay: MIC, CO-ADD broth microdilution; format: cell-based; details: mean (n = 2)
[16] = tested on: S. aureus ATCC 25923; assay: ATP release assay (bioluminescence); format: cell-based, Staphylococcus aureus; details: brief exposure
Procedure: The mechanism of action of antibacterial activity observed for 15d was attributed to the ability to disrupt the bacterial cell membrane.
Solutions of test compound 15d were prepared in DMSO at various concentrations. A suspension of growing S. aureus to be studied in Muller–Hinton II broth was prepared and incubated at 37 °C. An aliquot (90 µL) of this suspension was added to 10 µL of test compound solution and vortexed for 10 s. Luciferin–luciferase reagent (Yelen, France; 50 µL) was immediately added to this mixture and luminescent signal quantified with an Infinite M200 microplate reader (Tecan) over a 30 min period. ATP concentration was quantified by internal sample addition. A similar procedure was used for the CTAB positive control.

[17] = tested on: Pseudomonas aeruginosa PAO1 or ATCC 27853; assay: MIC, broth dilution (CA-SFM); format: cell-based; details: mean (n = 3)
[18] = tested on: Klebsiella pneumoniae ATCC700603; assay: MIC, CO-ADD broth microdilution; format: cell-based; details: mean (n = 2)
[19] = Cytotoxicity assay (resazurin); format: cell-based, human; details: human; HEK293 cells; mean (n = 2); highest dose tested 32 μg/mL; read-out: Cytotoxicity (concentration of compound at 50% cytotoxicity, IC50)
[20] = tested on: HEK293 human embryonic kidney cells; assay: Cytotoxicity assay (resazurin); format: cell-based; details: HEK293
[21] = at 4.4 μM (4 µg/mL) and 17 μM (16 µg/mL)
[22] = lowest tested concentration 2.2 μM (2 µg/mL)

MIC ([1]; Staphylococcus aureus ATCC 25923 or ATCC 29213, mean (n = 3), read-out: MIC S. a): 3.13 µM | MIC ([1]; Staphylococcus aureus, S. aureus ATCC 25923, classical microdilution, 4.4 μM = 4 μg/mL, read-out: MIC): 4.4 µM | MIC [3]: ≤ 0.28 µM | MIC [10]: 4.4 µM | MIC [11]: 2.2 µM | MIC [12]: > 35.4 µM | MIC [13]: > 35.4 µM | MIC [14]: 4.4 µM | MIC [15]: > 35.4 µM | MIC [17]: 100 µM | MIC [18]: > 35.4 µM
Structure (SMILES): O=C(CC(c1ccccc1)c1ccccc1)NCCCNCCCCCCCCNCCCNC(=O)CC(c1ccccc1)c1ccccc1.O=C(O)C(F)(F)F.O=C(O)C(F)(F)F [Compound 15d, N^1,N^8-Bis(3-(3,3-diphenylpropanamido)propyl)octane-1,8-diaminium 2,2,2-trifluoroacetate]
real-time growth inhibition [2, 21]: completely inhibited | time after which bacterial growth was detected [2, 22]: 12 h | hemolytic properties [4]: no detectable | Hemolysis (HC10, concentration at 10% hemolytic activity) ([4]; mean (n = 2)): >35.4 µM | MBC [5]: 4.4 µM | MBC [6]: 4.4 µM | MBC [7]: 4.4 µM | real-time growth inhibition [8, 21]: completely inhibited | time after which bacterial growth was detected [8, 22]: 6 h | real-time growth inhibition [9, 21]: completely inhibited | time after which bacterial growth was detected [9, 22]: 4 h | leakage of intracellular ATP [16]: rapid dose-dependent leakage of intracellular ATP | IC50 at 20 h [19]: > 35.4 µM | cytotoxicity [20]: no detectable
